Measured values reported in BindingDB's records for PubMed 36846363 (Al-Ahliyya Amman University, 2023).
pIC50: −log10 of the molar value.

assay: Antagonist activity at P2Y12 receptor in human blood platelets assessed as inhibition of ADP-induced platelet aggregation compound preincubated with blood for 5 mins prior to ADP addition by electrode aggregometry assay

pIC50	SMILES
4.46	O=C(CCCCCCCC(=O)Nc1ccc2[nH]c3ccccc3c(=O)c2c1)Nc1ccc2[nH]c3ccccc3c(=O)c2c1
5.38	CCOC(=O)c1cc(NC(=O)c2cc(NC(=O)c3cc(NC(=O)c4c(-c5ccccc5)noc4C)cn3C)cn2C)cn1C
5.19	O=C(CCC(=O)Nc1ccc2[nH]c3ccccc3c(=O)c2c1)Nc1ccc2[nH]c3ccccc3c(=O)c2c1
